Source: ChEMBL document CHEMBL1201862, “PubChem BioAssay data set” (2004)
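How tested: cells in 96-well plates exposed to compound for 48 hours at five concentrations. Here, GI50 denotes the concentration required for 50% inhibition of growth.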 Activity calls are given as the source filed them. Rule as the data show it: active = GI50 up to about 1.1 µM and inactive = higher.

Key:
Experiment in all cases: growth of human tumour cells (NCI), 48 h
[1] = test system: 786-0
[2] = test system: A498
[3] = test system: A549
[4] = test system: ACHN
[5] = test system: BT-549
[6] = test system: CAKI-1
[7] = test system: CCRF-CEM
[8] = test system: COLO 205
[9] = test system: DU-145
[10] = test system: EKVX
[11] = test system: HCC 2998
[12] = test system: HCT-116
[13] = test system: HCT-15
[14] = test system: HL-60
[15] = test system: HOP-62
[16] = test system: HOP-92
[17] = test system: HT-29
[18] = test system: Hs-578T
[19] = test system: IGROV-1
[20] = test system: K562
[21] = test system: KM12
[22] = test system: LOX IMVI
[23] = test system: M14
[24] = test system: MCF7
[25] = test system: MDA-MB-231
[26] = test system: MDA-MB-435
[27] = test system: MDA-N
[28] = test system: MOLT-4
[29] = test system: Malme-3M
[30] = test system: NCI-H226
[31] = test system: NCI-H23
[32] = test system: NCI-H460
[33] = test system: NCI-H522
[34] = test system: NCI/ADR-RES
[35] = test system: OVCAR-3
[36] = test system: OVCAR-4
[37] = test system: OVCAR-5
[38] = test system: OVCAR-8
[39] = test system: PC-3
[40] = test system: RPMI-8226
[41] = test system: RXF 393
[42] = test system: SF-268
[43] = test system: SF-295
[44] = test system: SF-539
[45] = test system: SK-MEL-28
[46] = test system: SK-MEL-2
[47] = test system: SK-MEL-5
[48] = test system: SK-OV-3
[49] = test system: SN12C
[50] = test system: SNB-19
[51] = test system: SNB-75
[52] = test system: SR
[53] = test system: SW-620
[54] = test system: T47D
[55] = test system: TK-10
[56] = test system: U-251
[57] = test system: UACC-257
[58] = test system: UACC-62
[59] = test system: UO-31

`CCOc1ccc(C2c3[nH]c4ccccc4c3CCN2C(=O)c2cccs2)cc1` (centres undefined) was tested, and the GI50 [1] was 9.18 µM (inactive), the GI50 [2] was 7.4 µM (inactive) and the GI50 [3] was 7.03 µM (inactive). For the same compound, the GI50 [4] was 44.5 µM (inactive), the GI50 [5] was 61.9 µM (inactive) and the GI50 [6] was 9.14 µM (inactive). For the same compound, the GI50 [7] was 3.48 µM (inactive), the GI50 [8] was 8.47 µM (inactive) and the GI50 [9] was 68.9 µM (inactive). For the same compound, the GI50 [10] was 7.35 µM (inactive), the GI50 [11] was 2.08 µM (inactive) and the GI50 [12] was 4.8 µM (inactive). For the same compound, the GI50 [13] was 1740 nM, the GI50 [14] was 9.04 µM (inactive) and the GI50 [15] was 4.67 µM (inactive). For the same compound, the GI50 [16] was > 100 µM (inactive), the GI50 [17] was 5.98 µM (inactive) and the GI50 [18] was 63.1 µM (inactive). For the same compound, the GI50 [19] was 10.2 µM (inactive), the GI50 [20] was 2.34 µM (inactive) and the GI50 [21] was 9.08 µM (inactive). The GI50 [22] was 6.52 µM (inactive), the GI50 [23] was 37.7 µM (inactive) and the GI50 [24] was 7.6 µM (inactive). The GI50 [25] was 9.33 µM (inactive), the GI50 [26] was 6.61 µM (inactive) and the GI50 [27] was 6.55 µM (inactive). For the same compound, the GI50 [28] was 2.65 µM (inactive), the GI50 [29] was 88.5 µM (inactive) and the GI50 [30] was 3.06 µM (inactive). For the same compound, the GI50 [31] was 56.4 µM (inactive), the GI50 [32] was 2.2 µM (inactive) and the GI50 [33] was 9.79 µM (inactive). The GI50 [34] was 6.43 µM (inactive), the GI50 [35] was 9.89 µM (inactive) and the GI50 [36] was 4.22 µM (inactive). The GI50 [37] was > 100 µM (inactive), the GI50 [38] was 36.4 µM (inactive) and the GI50 [39] was 4.59 µM (inactive). For the same compound, the GI50 [40] was 5.41 µM (inactive), the GI50 [41] was 7.18 µM (inactive) and the GI50 [42] was 52.4 µM (inactive). The GI50 [43] was 6.03 µM (inactive), the GI50 [44] was 3.51 µM (inactive) and the GI50 [45] was > 100 µM (inactive). For the same compound, the GI50 [46] was 78.3 µM (inactive), the GI50 [47] was 5.75 µM (inactive) and the GI50 [48] was > 100 µM (inactive). The GI50 [49] was > 100 µM (inactive), the GI50 [50] was 23.8 µM (inactive) and the GI50 [51] was 35.6 µM (inactive). For the same compound, the GI50 [52] was 2.62 µM (inactive), the GI50 [53] was 21.1 µM (inactive) and the GI50 [54] was 5.9 µM (inactive). The GI50 [55] was > 100 µM (inactive), the GI50 [56] was 4.07 µM (inactive) and the GI50 [57] was 17.3 µM (inactive). For the same compound, the GI50 [58] was 6.04 µM (inactive) and the GI50 [59] was 14.2 µM (inactive).
